Data as given in PMC4113009, “Dihydroisoxazole inhibitors of Anopheles gambiae seminal transglutaminase AgTG3” (Malaria Journal, 2014).

Legend:
[1] = molecular target: AgTG3 (Anopheles gambiae, UniProt D2K8K8); assay: biochemical; settings: 100 μM, triplicate
Method: Plugin-C (25 μg/well) was incubated in black 96-well Ni-coated plates (Pierce 15342) for 2 h at room temperature or overnight at 4°C. Plates were washed three times with 200 μL of TBS and loaded with 0.5 μg of AgTG3 in 50 μL TBS buffer. DHI inhibitors were added for 1 h to block the enzyme, followed by 50 μL of 2× assay buffer (2× TBS, 20 mM CaCl2, 100 μM FITC-CAD, 2 mM DTT). Wells were incubated for 60 min at room temperature, washed three times with 200 μL of TBS, and filled to a final volume of 100 μL for fluorescence measurements in a microplate reader (Biotek Synergy 2). The z-score was calculated based on the mean and standard deviation of three replicates of inhibitor compared to a DMSO control, zi=x¯DMSO-x¯i/σDMSO+σi .
The targeted chemical library was screened for inhibition of AgTG3 at 100 μM in a FITC-CAD plate assay (Figure 3A), performed in triplicate as previously described. Hit-calling was based on >67% decrease in fluorescence compared to DMSO and z > 5. Seven compounds fulfilled these criteria in the primary assay.
To verify the results of this preliminary assay, dose–response curves in the range of 0.5–100 μM were determined for 27 structurally related compounds within the targeted library (Additional file 3: Table S2 and Additional file 4: Table S3). […] Selected stereoisomers present in the targeted library were compared in equivalent dose–response assays. Inhibition of AgTG3 was specific for the (S)-DHI isomer of 1 (Figure 4A), the (R) isomer (4) displaying no activity (IC50 > 100 μM).

[2] = tested on: hTG2; settings: cited from earlier work

AgTG3, sequence (D2K8K8 entry or part of it): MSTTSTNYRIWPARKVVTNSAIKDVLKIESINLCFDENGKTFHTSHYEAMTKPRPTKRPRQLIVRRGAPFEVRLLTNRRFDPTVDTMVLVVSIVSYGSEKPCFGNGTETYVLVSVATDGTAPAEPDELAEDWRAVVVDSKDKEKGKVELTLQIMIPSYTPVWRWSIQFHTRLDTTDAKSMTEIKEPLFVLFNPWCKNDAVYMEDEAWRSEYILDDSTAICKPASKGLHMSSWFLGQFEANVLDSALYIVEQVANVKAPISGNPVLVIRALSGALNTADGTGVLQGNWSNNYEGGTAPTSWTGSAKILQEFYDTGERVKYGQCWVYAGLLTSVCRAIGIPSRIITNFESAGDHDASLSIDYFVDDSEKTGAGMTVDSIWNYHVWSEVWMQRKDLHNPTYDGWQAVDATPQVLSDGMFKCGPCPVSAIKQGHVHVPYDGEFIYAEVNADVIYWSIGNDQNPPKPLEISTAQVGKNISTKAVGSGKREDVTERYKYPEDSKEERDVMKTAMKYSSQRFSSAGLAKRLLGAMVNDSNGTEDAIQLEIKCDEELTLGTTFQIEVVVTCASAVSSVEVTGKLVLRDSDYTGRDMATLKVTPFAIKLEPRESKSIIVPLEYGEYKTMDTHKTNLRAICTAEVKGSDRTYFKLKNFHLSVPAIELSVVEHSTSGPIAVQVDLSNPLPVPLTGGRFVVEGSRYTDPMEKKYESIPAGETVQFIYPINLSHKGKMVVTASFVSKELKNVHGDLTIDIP

## NNC(=O)CSc1nc2scc(-c3ccccc3)c2c(=O)n1-c1ccccc1 [LDN-27219, reference compound]
[1]
  Inhibition of AgTG3 in primary screen: neither the eight acylidene oxoindoles tested nor the thienopyrimidinone LDN-27219 inhibited AgTG3
[1]; listed as LD-217912
  Inhibition of AgTG3 in primary screen: neither acylidene oxoindoles nor the thienopyrimidinone LD-217912 showed any inhibition
[2]
  IC50: < 10 µM
